{"source": "patent US20240148835A1", "about": "“TREATING DISORDERS ASSOCIATED WITH DYRK1A DYSFUNCTION” (UNIVERSITY OF FLORIDA RESEARCH FOUNDATION, INCORPORATED, priority 2021, published 2024)", "key": {"[1]": {"system": "mouse model of Rett syndrome", "settings": "chronic administration, same paradigm; cited from earlier work"}, "Dyrk1a cHets [2]": {"system": "Dyrk1a cHets", "assay": "Neonatal (1-3)IGF-1 injection in Dyrk1a cHet pups: cortex mass, layer V soma size, p-S6", "format": "in vivo, mouse", "method": "We next aimed to increase mTOR signaling via pharmacological intervention. Because activation of TrkB receptor is decreased in cKOs, treating mice with exogenous BDNF may not be effective. To circumvent this issue while stimulating the same signaling cascades, we injected neonatal pups with (1-3)IGF-1 (GPE), a tripeptide cleaved from the N-terminus of IGF-1 (44). Pups were injected daily from P0 to P7 with 10 μg/g (1-3)IGF-1 or vehicle based on a previously described treatment paradigm (45). Eight hours post-injection on P7, pups were sacrificed, and brains were fixed (FIG. 7F).\n(1-3)IGF-1 treatment: (1-3)IGF-1 was acquired from VWR/Bachem (catalog #H-2468.1000) and dissolved in saline with 0.01% BSA fresh every day. Intraperitoneal injections of 10 μg/g (1-3)IGF-1 or vehicle were delivered daily at 8 a.m. starting on P1 and ending on P7. […] Pups were individually removed, injected, and placed back in the home cage with the dam. On P7, 6 hours post-injection, pups were rapidly decapitated for downstream analysis.\nImmunohistochemistry: Adult animals were perfused with 4% PFA, and pups underwent rapid decapitation and dissection. After 18 hours post-fixation in 4% PFA, brains were incubated in a 20% sucrose/PBS solution at 4° C. for 2-3 days and embedded in Tissue-Tek OCT compound (Sakura). 40 μm sections were collected on Superfrost/Plus slides and stained. The following primary antibodies were used following antigen retrieval (10 min. in boiling 10× citrate buffer): anti-cleaved caspase 3 (1:1000, Cell Signaling Technology, catalog #9661S), anti-Ctip2 (1:2000, Abcam, catalog #18465), anti-p-S6 Ser235/236 (1:2000, Cell Signaling Technology, catalog #4858S). AlexaFluor-488, -594, and -647-conjugated secondary antibodies (1:2000) were purchased from Invitrogen. DAPI was used for nuclear labeling (Invitrogen, catalog #D3571). Slides were mounted with Vectashield HardSet and images were obtained with an Olympus VS120 microscope and processed using the VS-DESKTOP software (Olympus) or ImageJ (NIH).\nFor p-S6 intensity, P0, P7, and adult sections were stained with Ctip2 and p-S6 (Ser235/236). […] After image acquisition, Ctip2+ neurons were measured for p-S6 mean gray intensity. 25-30 neurons were measured per section and 2 plane-matched sections were analyzed per animal.\nFor soma size analysis, sections were stained with NeuroTrace green fluorescent Nissl stain (1:100 dilution, Life Technologies catalog #N-21480) and washed with PBS. After image acquisition, somas in each layer in somatosensory cortex (51) were measured using the ImageJ freehand tool. Layers were denoted based on anatomical boundaries using DAPI staining. 30-35 somas were measured per layer and 2-3 plane-matched sections were analyzed per animal. This was done based on a previously published technique (8)."}, "Dyrk1a cHets [3]": {"system": "Dyrk1a cHets", "assay": "Chronic (1-3)IGF-1 treatment from P14: cortical and neuronal morphology", "format": "in vivo, mouse", "method": "To test whether administration of the active peptide (1-3)IGF-1 restores cortical growth in cHets, we utilized the following paradigm: controls and cHets were treated daily with either (1-3)IGF-1 or vehicle beginning at P14. A behavioral battery began at P56 and daily injections continued until the mice were sacrificed for downstream analysis (FIG. 17A). […] As the impact of loss-of-function Dyrk1a mutations on spine density has not been investigated in vivo, we measured spine density on primary neurites of layer V pyramidal neurons in the mPFC. […] Together, these findings indicate that chronic (1-3)IGF-1 treatment beginning at P14 rescues microcephaly and neuronal undergrowth in Dyrk1a cHets.\n(1-3)IGF-1 was acquired from VWR/Bachem (catalog #H-2468.1000) and dissolved in saline with 0.01% BSA fresh every day. Intraperitoneal injections of 10 mg kg′ (1-3)IGF-1 or vehicle were delivered daily at 8 a.m. starting on P14 and ending on P85. […] The S6K1 inhibitor PF-4708671 was acquired from Medkoo Biosciences (#406432) dissolved in 10% DMSO, 10% tween 80 and 80% water. (1-3)IGF-1 (10 mg kg′) and PF-4708671 (50 mg kg^−1) or vehicle were injected subcutaneously into pups from P0 to P7. Rapamycin was acquired from LC laboratories (R-5000) and dissolved in 4% ethanol, 5% tween-80, and 5% PEG400 in PBS. (1-3)IGF-1 (10 mg kg′) and Rapamycin (1 mg kg′) or vehicle were injected subcutaneously into pups from P0 to P7. SB216763 was acquired from TOCRIS (#1616) and dissolved in 5% DMSO and 0.9% saline in dH20. SB216763 (0.5 mg kg′) was injected subcutaneously into pups from P0 to P7.\nAdult animals were perfused with 4% PFA and pups underwent rapid decapitation and dissection. After 18 hours post-fixation in 4% PFA, brains were incubated in a 20% sucrose/PBS solution at 4° C. for 2-3 days and embedded in Tissue-Tek OCT compound (Sakura). 40 μm sections were collected on Superfrost/Plus slides and stained. DAPI was used for nuclear labeling (Invitrogen, catalog #D3571). Slides were mounted with Vectashield HardSet and images were obtained with an Olympus VS120 microscope and processed using the VS-DESKTOP software (Olympus) or ImageJ (NIH). Ventricle size was analyzed by drawing an ROI around the entire ventricle in 2-3 plane-matched sections per animal.\nFollowing rapid decapitation, brains were removed and processed using the FD Rapid Golgistain™ kit (FD Neurotechnologies, Columbia MD) following the manufacturer's instructions. A Leica vibrating microtome was used to cut 100 μm coronal sections in 6% sucrose in PBS. The sections were then mounted on gelatin-coated slides and stained using the FD Rapid Golgistain™ kit. Individual neurons were imaged using a Leica DM5500B 20× objective and reconstructed using Neuromantic software. After reconstruction, Sholl analysis was performed in ImageJ using the Simple Neurite Tracer. Primary neurites were selected for spine density analysis where the number of spines was counted and divided by the length of the neurite fragment. Soma size was measured using the ROI freehand tool on imageJ (NIH)."}}, "note": "Entries after “also recorded” stand apart in the source; their conditions may differ."}
{"substance": "(1-3)IGF-1: a tripeptide cleaved from the N-terminus of IGF-1; acquired from VWR/Bachem, CAS No. 32302-76-4 (GPE; Insulin-like growth factor 1; UniProt P05019 49-51, looked up, fragment)", "values": [{"measurement": "lifespan, motor coordination, cardiac function, microcephaly, spine density, and synaptic function", "setting": "[1]", "value": "significantly improved"}, {"measurement": "cortex mass of controls", "setting": "Dyrk1a cHets [2]; control pups, 10 μg/g daily to P7", "value": "no effect"}, {"measurement": "p-S6 per layer V neuron in cHets", "setting": "Dyrk1a cHets [2]; neonatal cHets, 10 μg/g daily to P7, Ctip2+ neurons", "value": "normal levels; also recorded: rescues the decreased p-S6"}, {"measurement": "soma size of layer V neurons in cHets", "setting": "Dyrk1a cHets [2]; neonatal cHets, 10 μg/g daily to P7, Nissl stain", "value": "comparable to controls; also recorded: rescues the decreased soma size"}, {"measurement": "cortex mass of cHets", "setting": "Dyrk1a cHets [2]; neonatal cHets, 10 μg/g daily to P7, analysed P7, vs vehicle", "value": "rescues the decreased cortex mass"}, {"measurement": "neuronal complexity of layer V pyramidal neurons in the mPFC (Sholl analysis)", "setting": "Dyrk1a cHets [3]; daily from P14, adult cHets", "value": "restored the neuronal complexity; also recorded: rescued"}, {"measurement": "soma size of layer V pyramidal neurons", "setting": "Dyrk1a cHets [3]; daily from P14, adult cHets", "value": "restored the significantly smaller neuronal soma size; also recorded: rescued"}, {"measurement": "ventricle area in cHets", "setting": "Dyrk1a cHets [3]; daily from P14, adult cHets", "value": "normalized; also recorded: rescued"}, {"measurement": "spine density of layer V pyramidal neurons in the mPFC", "setting": "Dyrk1a cHets [3]; daily from P14, adult cHets, primary neurites", "value": "significantly increased; also recorded: partially restored"}, {"measurement": "cortex mass (cortical growth) of cHets", "setting": "Dyrk1a cHets [3]; daily i.p. 10 mg kg from P14, adult cHets", "value": "rescued cortical growth in cHets; also recorded: restored"}, {"measurement": "cortex mass (cortical growth) of controls", "setting": "Dyrk1a cHets [3]; daily i.p. 10 mg kg from P14, controls", "value": "no effect on controls"}]}
